Experiments:
[1] = Storage stability in human plasma, LC-MS/MS after plasma precipitation; format: in vitro ADME; details: for Stability 4 °C / Stability AS (autosampler) / Stability −20 °C / Stability BT (benchtop): 24 h; for Stability FT (freeze-thaw): freeze-thaw cycles; for Stability BT (benchtop): room temperature
Protocol: To assess stability, low and high concentrations of all analytes were subjected to different storage conditions. […] For determination of long-term stability, samples were stored in either plasma or DMEM at –80 °C for 90 and 91 days, respectively. To measure short-term stability, samples were stored at room temperature, in an autosampler, at 4 °C, and at –20 °C for 24 h. In addition, freeze-thaw cycles were performed according to FDA guidance for the standard solutions. For comparison, at least three freshly prepared samples were prepared for each concentration level. With the exception of autosampler stability, the internal standard was always added to all samples before sample processing was started.
After mixing the 1.5 µM internal standard and the plasma sample, protein precipitation was commenced. Next, 190 µL of acetonitrile and 50 µL of 0.5 M sulfuric acid buffer were added. The tubes were then shaken at 1400 rpm for 5 min followed by centrifugation at 14,000 rpm for 5 min. Subsequently, 195 µL of the supernatant was transferred to an LC tube and analyzed.
To assess stability, low and high concentrations of all analytes were exposed to different storage conditions. To determine long-term stability, samples were stored in either plasma or DMEM at −80 °C for 90 and 91 days, respectively. To determine short-term stability, samples were stored for 24 h on the bench at room temperature, in the autosampler, at 4 °C, and at −20 °C. In addition, freeze-thaw cycles were performed for the standard solutions according to FDA guidance. At least three freshly prepared samples per concentration level were prepared for comparison. With the exception of the stability test in the autosampler, the internal standard was always added to all samples before sample processing was started. However, to avoid concentration fluctuations due to possible degradation of the analytes, stock solutions were prepared twice a week and stored at −20 °C. Each storage condition was examined in the dark. For all conditions studied, n = 3–6 replicates were prepared.

U251MG (glioblastoma) = experiment: WST-1 cell viability assay, 48-h incubation; format: cell-based, human; details: WST-1, 48 h, vs. vehicle, even at 3 µM in some (unnamed) cell lines
Protocol: (§1) To test the biological activity of the thia-analogous indirubin N-glycosides that are the focus of the present work, the effects of KD87 and KD85 and their non-glycosylated parent compound KD88 on the viability of various tumor cell lines were initially investigated. The corresponding analyses were performed using the cell lines A375 (melanoma), A431 (skin squamous cell carcinoma), A549 (non-small cell lung carcinoma), U251MG (glioblastoma), and U138MG (glioblastoma).
(§2) Figure 2 Effect of increasing concentrations of KD87 (A), KD85 (B), and KD88 (C) on viability of various cancer cells. A375 (melanoma; black columns), A431 (skin squamous cell carcinoma; dark grey columns), A549 (non-small cell lung carcinoma; grey columns), U251MG (glioblastoma; light grey columns), or U138MG (glioblastoma; white columns) were incubated for 48 h with the appropriate compounds or vehicle followed by determination of cell viability by WST-1 assay. Percent control represents comparison with vehicle-treated cells (100%) in the absence of test substance. Values are mean ± standard error of the mean (SEM) of n = 15 in all panels, except n = 14 for A375 and A431 cells in panel B and n = 14–15 for A375 cells in panel C, from four (A375, A431) or five (A549, U251MG, U138MG) independent experiments. * p ≤ 0.05, ** p ≤ 0.01, *** p ≤ 0.001, **** p ≤ 0.0001 vs. vehicle control; one-way ANOVA with Dunnett’s post hoc test.
(§3) The human melanoma cell line A375 (#300110; RRID:CVCL_0132) as well as the human skin epidermoid carcinoma cell line A431 (#300112; RRID:CVCL_0037) were purchased from CLS Cell Lines Service GmbH (Eppelheim, Germany). The human glioblastoma cell line U251MG (#09063001; RRID:CVCL_0021) was from Sigma-Aldrich Corporation. The human glioblastoma cell line U138MG (#ACC 291; RRID: CVCL_0020) and the human lung carcinoma cell line A549 (#ACC 107, RRID:CVCL_0023) were purchased from DSMZ (Deutsche Sammlung von Mikroorganismen und Zellkulturen GmbH, Braunschweig, Germany).
(§4) Cells were cultured in high-glucose DMEM (with GlutaMAX™-I: A375, A431; with UltraGlutamine^TM I: A549, U251MG, U138MG) supplemented with 10% heat-inactivated FBS, 100 U/mL penicillin, and 100 μg/mL streptomycin and grown in a humidified incubator at 37 °C and 5% CO2. For viability analyses, cells were seeded in 96-well plates at a density of 5000 cells per well in DMEM containing 10% heat-inactivated FBS and cultured for 24 h. All cell experiments with the specific substances were performed in serum-free DMEM supplemented with 100 U/mL penicillin and 100 μg/mL streptomycin, applied after washing the cells with DPBS. The test substances were dissolved in DMSO. The final concentration of DMSO in the incubation media of test substance- and vehicle-treated cells was 1% (v/v).
(§5) After completion of the 48-h incubation, WST-1 reagent (Sigma, Taufkirchen, Germany) was added to the cells to achieve a final dilution of 1:10, and the cells were incubated for an additional 20 min before absorbance was measured at 450 nm, reference wavelength […], using a microplate reader.

[2] = tested on: A431 (skin squamous cell carcinoma); experiment: WST-1 cell viability assay, 48-h incubation; format: cell-based, human; details: A431, WST-1, 48 h, vs. vehicle; even at 3 µM in some (unnamed) cell lines
Protocol: as §1, §2, §3, §4, §5

U138MG (glioblastoma) = experiment: WST-1 cell viability assay, 48-h incubation; format: cell-based, human; details: WST-1, 48 h, vs. vehicle, even at 3 µM in some (unnamed) cell lines
Protocol: as §1, §2, §3, §4, §5

[3] = tested on: A549 (non-small cell lung carcinoma); experiment: WST-1 cell viability assay, 48-h incubation; format: cell-based, human; details: A549, WST-1, 48 h, vs. vehicle; even at 3 µM in some (unnamed) cell lines
Protocol: as §1, §2, §3, §4, §5

A375 (melanoma) = experiment: WST-1 cell viability assay, 48-h incubation; format: cell-based, human; details: A375, WST-1, 48 h, vs. vehicle; even at 3 µM in some (unnamed) cell lines
Protocol: as §1, §2, §3, §4, §5

Compound	Stability 4 °C ([1]; 2.0 nM) [%]	Stability AS (autosampler) ([1]; 2.0 nM) [%]	Stability −20 °C ([1]; 2.0 nM) [%]	Stability FT (freeze-thaw) ([1]; 2.0 nM) [%]	Stability BT (benchtop) ([1]; 2.0 nM) [%]	Stability 4 °C ([1]; 167 nM) [%]	Stability AS (autosampler) ([1]; 167 nM) [%]	Stability −20 °C ([1]; 167 nM) [%]	Stability FT (freeze-thaw) ([1]; 167 nM) [%]	Stability BT (benchtop) ([1]; 167 nM) [%]	concentration from which significant cytotoxic effects start (U251MG (glioblastoma)) [µM]	concentration from which significant cytotoxic effects start [2] [µM]	concentration from which significant cytotoxic effects start (U138MG (glioblastoma)) [µM]	concentration from which significant cytotoxic effects start [3] [µM]	concentration from which significant cytotoxic effects start (A375 (melanoma)) [µM]
O=C1/C(=C2/C(=O)N([C@@H]3O[C@H](CO)[C@@H](O)[C@H](O)[C@H]3O)c3ccccc32)Sc2ccccc21 [KD87, 3-[3′-oxo-benzo[b]thiophen-2′-(Z)-ylidene]-1-(β-D-glucopyranosyl)-oxindole]	81.4 ± 3.1	105.7 ± 6.7	94.6 ± 2.8	98.8 ± 5.6	64.3 ± 5.6	84.5 ± 2.0	99.9 ± 4.8	92.6 ± 2.6	97.9 ± 4.1	75.0 ± 3.5	≤ 6	≤ 6	≤ 6	≤ 6	≤ 6
O=C1/C(=C2/C(=O)N([C@@H]3O[C@H](CO)[C@@H](O)[C@H](O)[C@@H]3O)c3ccccc32)Sc2ccccc21 [KD85, 3-[3′-oxo-benzo[b]thiophene-2′-(Z)-ylidene]-1-(β-D-mannopyranosyl)-oxindole]	81.3 ± 3.4	97.6 ± 8.0	90.1 ± 5.7	107.9 ± 4.9	57.5 ± 4.1	85.5 ± 1.9	99.6 ± 4.1	96.3 ± 2.3	99.5 ± 3.8	70.3 ± 3.2	≤ 6	≤ 6	≤ 6	≤ 6	≤ 6
